# Results as given in patent publication EP2814319B1, “ANTIMICROBIAL COMPOSITION CONTAINING PHOTOCHEMICALLY STABLE SILVER COMPLEXES” (NM Tech Nanomaterials and Microdevices Technology Ltd., priority 2012, dated 2013).
# Tests used:
# [1] = Photochemical stability of aqueous solutions under ambient light exposure; format: physicochemical
# Method: The observation that, after a 12 month period, in the presence of a cationic surfactant no precipitation and no formation of metallic Silver occur, confirms the relevant role of the cationic surfactants in determining the stabilization in solution of the neutral complex and the role of the ligand L in stabilizing photochemically the Ag^+ ion.
# (§1) The neutral complex Ag-L with L = 4-mercaptophenilboronic acid was prepared by adding stoichiometric amounts of 4-mercaptophenylboronic acid to an aqueous solution of a silver salt, such as silver nitrate. […] The aqueous solution of the complex was stabilized by addition of Benzalkonium chloride up to reach a concentration of about 2 x 10^-2 M, which corresponds to the double of its critical micelle concentration.
# Solubility in water = format: physicochemical; settings: without surfactant
# Method: The complex of formula Ag-L can be prepared by adding stoichiometric amounts of 4-mercaptophenylboronic acid to an aqueous solution of a silver salt, such as silver nitrate. […] This complex can be solubilized in aqueous solution by addition of a cationic surfactant.
# as §1
# [2] = tested on: Staphylococcus aureus (ATCC- 6538), Pseudomonas aeruginosa (ATCC - 15442); assay: Quantitative suspension test for bactericidal activity (UNI EN 1272:2009); format: cell-based
# Method: The bactericidal activity was tested on freshly prepared aqueous solutions of the neutral Ag-L complex where the ligand L coordinated to the silver ion is 4-mercaptophenilboronic acid .
# Additional tests were carried out on aqueous solutions containing the neutral Silver Ag-L complex and different cationic surfactants and, for purpose of comparison, on aqueous solutions containing only the cationic surfactants at the same concentration levels. It is in fact known that the cationic surfactants used for the purposes of the invention are endowed with antimicrobic activity on their own.
# The bactericidal activity tests were carried out according to UNI EN 1272:2009 and UNI EN 13697:2001 standards, which make reference to chemical disinfectants and antiseptics, by using the following test organism: Staphylococcus aureus (ATCC- 6538), as representative of Gram-positive bacteria and Pseudomonas aeruginosa (ATCC - 15442), as representative of Gram-negative bacteria.
# On such solutions it was in fact observed a maximum reduction of the bacterial count of ca 6-7 log.
# [3] = treating burns; decreased from 60%; cited from earlier work
# [4] = tested on: Staphylococcus epidermidis; settings: cited from earlier work
smiles,measurement,setting,value
OB(O)c1ccc([S][Ag])cc1 [AgL],change in color or composition,"[1]; aqueous solution stabilized with Benzalkonium chloride about 2 x 10^-2 M, 12 months ambient light exposure",did not show any change in color or composition
same,solubility in water,Solubility in water,only partly soluble in water
same,log reduction at 330 µM,"[2]; Staphylococcus aureus, 0.5 h, concentration of the order of 3.3 x 10^-4 M in water, 30 min of contact, read-out: log reduction of bacterial count",2 to 3
"O=[N+]([O-])[O-].[Ag+] [Silver Nitrate, silver nitrate]",formation of Ag° precipitate,"[1]; aqueous solution, comparable conditions (ambient light exposure)",formation of a black Ag° precipitate after few minutes
same,number of deaths that were a result of sepsis,[3],28%
same,log reduction of bacterial count,"[2]; concentration of the order of 3.3 x 10^-4 M in water, 30 min of contact",2-3 log
same,antimicrobial activity after exposure to ambient light,[2]; solution of concentration comparable to 3.3 x 10^-4 M,lose the antimicrobial activity after exposure to ambient light
[H]/N=C(\N/C(=N/[H])NCCCCCCNC(=N)NC(=N)Nc1ccc(Cl)cc1)Nc1ccc(Cl)cc1 [chlorhexidine],development of resistance,[4],no evidence of resistance
